Assay [1] has as its target human RORγt ligand binding domain (RORγt LBD) (Homo sapiens (Human), UniProt P51449). As to the kind of experiment: RORγt ThermoFluor® assay (thermal shift binding). As to conditions: read-out: ThermoFluor® Assay, Kd. Summed up:
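His-tagged human RORγt LBD (0.065 mg/mL) with 60 μM 1,8-ANS in 100 mM Hepes pH 7.0, 10 mM NaCl, 2.5 mM GSH, 0.002% Tween-20 was heated at 1 °C/min.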
(In DSF a fluorescence change marks the thermal transition of the protein.)

The next assay addresses full-length human RORγt (Homo sapiens (Human), UniProt P51449). Description: RORγt (full-length human) reporter assay, Conditions B or C. As to conditions: for inhibition at 3 µM: at 3 μM compound concentration, read-out: RORγt (FL) Reporter Assay B or C, % inhibition; for IC50: read-out: RORγt (FL) Reporter Assay B or C, IC50; for RORγt (FL) Reporter Assay B or C, % inhibition (value marked *): marked *: footnote not given. Type of assay: cell-based. An outline of the steps:
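HEK293T cells transiently co-transfected with GAL4-DBD–full-length human RORγt (nt 142-1635, NM_001001523.1) plus GAL4-firefly and CMV-Renilla luciferase reporters; compounds added 4-6 h post-transfection for 16-20 h in 1.3% FBS, 0.1% DMSO. Firefly signal normalized to DMSO and saturating reference compound, then to Renilla; IC50 from concentration plots.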
Background: In a reporter assay the amount or activity of a reporter protein is the signal.

The values below come from patent publication US10975068B2, “6-aminopyridin-3-yl thiazoles as modulators of RORγT” (Janssen Pharmaceutica NV, priority 2016, dated 2021).

Where two headings read alike, the source gives them in different places.

Sequence of human RORγt ligand binding domain (RORγt LBD) (P51449 other isoform, or with tags, fused parts or gaps): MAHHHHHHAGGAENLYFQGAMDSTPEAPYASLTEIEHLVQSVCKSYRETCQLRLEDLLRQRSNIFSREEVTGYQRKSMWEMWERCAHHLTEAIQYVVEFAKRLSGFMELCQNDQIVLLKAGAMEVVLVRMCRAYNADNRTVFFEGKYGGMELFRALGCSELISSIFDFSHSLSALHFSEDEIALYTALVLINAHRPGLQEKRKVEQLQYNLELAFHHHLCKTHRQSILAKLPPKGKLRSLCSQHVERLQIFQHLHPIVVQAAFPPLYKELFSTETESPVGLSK
Sequence of full-length human RORγt (P51449 other isoform, or with tags, fused parts or gaps): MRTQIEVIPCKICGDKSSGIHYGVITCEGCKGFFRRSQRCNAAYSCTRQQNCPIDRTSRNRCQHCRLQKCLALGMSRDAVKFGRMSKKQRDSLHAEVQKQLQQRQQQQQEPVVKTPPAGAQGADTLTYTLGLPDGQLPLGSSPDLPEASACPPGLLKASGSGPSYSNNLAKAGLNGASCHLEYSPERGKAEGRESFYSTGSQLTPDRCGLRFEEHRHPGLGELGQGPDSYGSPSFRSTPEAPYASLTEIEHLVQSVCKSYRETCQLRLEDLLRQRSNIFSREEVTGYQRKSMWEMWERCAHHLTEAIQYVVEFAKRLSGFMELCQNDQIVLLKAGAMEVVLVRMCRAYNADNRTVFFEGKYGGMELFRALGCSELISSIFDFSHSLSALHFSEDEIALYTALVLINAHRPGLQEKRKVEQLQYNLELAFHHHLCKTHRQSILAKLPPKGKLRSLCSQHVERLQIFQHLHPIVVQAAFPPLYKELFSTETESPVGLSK

By Kd is commonly meant the equilibrium constant for the complex coming apart. The term inhibition denotes the drop in the measured response relative to a control, in per cent. One may read the IC50 as the midpoint of a concentration-inhibition curve. As for `C[C@H]1CCCN1C(=O)c1nc(C(=O)NC2(C)COC2)sc1-c1cnc(NC(C)(C)C)cc1C(F)(F)F` [Example 253, 5-[6-(tert-Butylamino)-4-(trifluoromethyl)-3-pyridyl]-N-(3-methyloxetan-3-yl)-4-[(2S)-2-methylpyrrolidine-1-carbonyl]thiazole-2-carboxamide], the Kd in assay [1] stood at 1.9 nM. At full-length human RORγt, the inhibition at 3 µM was 108% and the IC50 came to 7.7 nM.

For the compound `C[C@H]1CC(F)(F)CN1C(=O)c1nc(C(=O)NCC(C)(C)O)sc1-c1cnc(NCC(C)(C)C)cc1C(F)(F)F` [Example 85, (S)-4-(4,4-Difluoro-2-methylpyrrolidine-1-carbonyl)-N-(2-hydroxy-2-methylpropyl)-5-(6-(neopentylamino)-4-(trifluoromethyl)pyridin-3-yl)thiazole-2-carboxamide], the dissociation constant Kd in assay [1] turned out to be 0.53 nM. Also, the “RORγt (FL) Reporter Assay B or C, % inhibition (value marked ***)” value at full-length human RORγt (Conditions B or C, marked ***: footnote not given) was 128*** %. At full-length human RORγt (Conditions B or C), the IC50 came out at 27 nM.

For `CC[C@H](Nc1cc(C(F)F)c(-c2sc(C(=O)N[C@H]3COC[C@@H]3O)nc2C(=O)N2CCC[C@@H]2C)cn1)C(F)(F)F` [Example 239, 5-[4-(Difluoromethyl)-6-[[(1S)-1-(trifluoromethyl)propyl]amino]-3-pyridyl]-N-[(3S,4R)-4-hydroxytetrahydrofuran-3-yl]-4-[(2S)-2-methylpyrrolidine-1-carbonyl]thiazole-2-carboxamide], the dissociation constant Kd in assay [1] was 5.4 nM. Moreover, at full-length human RORγt (Conditions B or C), the “RORγt (FL) Reporter Assay B or C, % inhibition (value marked *)” value (“RORγt … % inhibition (value marked *)” below) was 105* % and the IC50 worked out at 19 nM.

For the compound `C[C@H]1CCCN1C(=O)c1nc(C(=O)NCC(C)(O)C(F)(F)F)sc1-c1cnc(NC(C)(C)C)cc1C(F)(F)F` (single isomer, unassigned) [Example 358, 5-(6-(tert-Butylamino)-4-(trifluoromethyl)pyridin-3-yl)-4-((S)-2-methylpyrrolidine-1-carbonyl)-N—((S*)-3,3,3-trifluoro-2-hydroxy-2-methylpropyl)thiazole-2-carboxamide], the Kd in assay [1] is 2.5 nM. At full-length human RORγt, the inhibition at 3 µM was 119% and the IC50 turned out to be 15 nM.

Consider `[2H]C([2H])([2H])C(O)(CNC(=O)c1nc(C(=O)N2CCC[C@@H]2C)c(-c2cnc(NC(C)(C)C)cc2C(F)(F)F)s1)C([2H])([2H])[2H]` [Example 180, (S)-5-(6-(tert-Butylamino)-4-(trifluoromethyl)pyridine-3-yl)-N-(2-hydroxy-2-(methyl-d3)propyl-3,3,3-d3)-4-(2-methylpyrrolidine-1-carbonyl)thiazole-2-carboxamide], for which the Kd in assay [1] was 1.8 nM. Also, on full-length human RORγt (Conditions B or C), the “RORγt … % inhibition (value marked *)” value is reported as 113* % and the half-maximal inhibitory concentration (IC50) is 20 nM.

As to `C[C@H]1CCCN1C(=O)c1nc(C(=O)N[C@H]2C[C@H](O)C2)sc1-c1cnc(NC2CCCC2)cc1C(F)F` [Example 74, 5-(6-(Cyclopentylamino)-4-(difluoromethyl)pyridin-3-yl)-N-((1r,3s)-3-hydroxycyclobutyl)-4-((S)-2-methylpyrrolidine-1-carbonyl)thiazole-2-carboxamide], the Kd in assay [1] stood at 73 nM. In addition, at full-length human RORγt (Conditions B or C), the “RORγt … % inhibition (value marked *)” value is 101* % and the half-maximal inhibitory concentration (IC50) stood at 32 nM.

Take `C[C@H]1CCCN1C(=O)c1nc(C(=O)NC2COC2)sc1-c1cnc(NC(C)(C)C)cc1C(F)(F)F` [Example 259, 5-[6-(tert-Butylamino)-4-(trifluoromethyl)-3-pyridyl]-4-[(2S)-2-methylpyrrolidine-1-carbonyl]-N-(oxetan-3-yl)thiazole-2-carboxamide]: the Kd in assay [1] came out at 3 nM. Also, on full-length human RORγt, the inhibition at 3 µM came to 101% and the IC50 stood at 25 nM.

As to `C[C@H]1CCCN1C(=O)c1nc(C(=O)NCC(C)(C)O)sc1-c1ccnc(NC2CCCCC2)c1C#N` [Comparator Example 1, (S)-5-(3-Cyano-2-(cyclohexylamino)pyridin-4-yl)-N-(2-hydroxy-2-methylpropyl)-4-(2-methylpyrrolidine-1-carbonyl)thiazole-2-carboxamide, reference compound], the equilibrium dissociation constant (Kd) in assay [1] was determined as 3000 nM. In addition, the concentration for half-maximal inhibition (IC50) on full-length human RORγt (HEK293T cells) is above 6000 nM.
